These results are taken from patent publication US20130039928A1, “COMPOSITIONS AND METHODS FOR REVERSING CORTICOSTEROID RESISTANCE OR TREATING RESPIRATORY INFECTIONS” (priority 2010, published 2013).

Where two headings read alike, the source gives them in different places.

Assay [1] has as its system CD80/86, MHC-11, CD14 and CD206. Conditions: FACS. The protocol: To examine the contribution of MARCO in mediating bacterial phagocytosis by alveolar macrophages following sulforaphane treatment, an antibody-depletion approach was employed. The specificity of anti-MARCO antibody was validated by immunoblot analysis (FIG. 12). […] To assess the effect of sulforaphane on the phenotype of macrophages, CD80/86, MHC-11, CD14 and CD206 were analyzed by FACS.

The subject of assay [2] is HDAC2. The protocol:
Whether sulforaphane increase HDAC2 activity in lungs of cigarette smoke exposed mice was determined.
(§1) Mice (C57BL/6 strain, 8-10 weeks old) were used for the studies. Exposure to CS (1 month) was carried out as described previously (Malhotra, D., et al., Am J Respir Crit Care Med 178, 592-604 (2008)). Residential peritoneal macrophages (PMs) isolation was carried out as described previously (Singh, A., et al., PLoS Med 3, e420 (2006)). Alveolar macrophages from mouse were isolated from bronchoalveolar lavage (BAL) fluid (Crimi, E., et al., Free Radic Biol Med 40, 398-406 (2006)).
HDAC activity was measured using a fluorescent derivative of ε-acetyl-lysine from Enzo life sciences (Farmingdale, N.Y.) according to the manufacturer's recommendations. HDAC2 was immunoprecipitated for analysis of enzymatic activity.

For a further assay, the system named is IL-8 promoter. Description: ChIP of IL-8 promoter (histone acetylation, HDAC2 binding) in alveolar macrophages. In kind it is cell-based, human. As to the method: (§2) For inducing corticosteroid resistance, PMs were exposed to cigarette smoke condensate (CSC, 100 μg/ml; Murty Pharmaceuticals, Lexington, Ky.) for 16 h. Exposure to S-nitrosoglutathione (GSNO, 10 μM) was limited to 4 h. […] For assessing corticosteroid responsiveness, macrophages were incubated with dexamethasone (1 μM, Sigma) for 1 h followed by LPS (100 ng/ml, Sigma) for additional 4 h.
Chromatin immunoprecipitation was performed as described previously (Hogg, J. C. & Timens, W., Annu Rev Pathol (2008)). Briefly, cells were fixed in ˜1% formaldehyde in cell growth media for 10 minutes followed by glycine fixation. Cells were then sonicated in ChIP-lysis buffer containing a protease inhibitor cocktail after incubation on ice for 30 minutes. […] sonication, the samples were spun at maximum speed for 12 minutes in a cold microcentrifuge. The supernatants were then addressed as input samples. A part of the input sample was precleared by using a 50% slurry of protein A/G beads prepared in immunoprecipitation (IP) buffer for 2 hours in the cold, following which the beads were centrifuged out and the supernatant was used for IP. Then the precleared samples were incubated with 2 μg of panacetylated histone H4 antibody (ChIP assay kit; Upstate Biotechnology) or anti-HDAC2 antibody from Santa Cruz Biotechnology. As a control, anti-rabbit IgG antibody was added for 1 hour in the cold. The protein A/G bead slurry was added to each reaction and was rotated overnight. The next day, the beads were washed extensively, and the DNA was reverse crosslinked, eluted in elution buffer, and stored at −80° C. until used for sequencing or PCR validation assays. […] This immunoprecipitated DNA was used for PCR amplification by using the specific gene (IL-8 for humans and MCP-1 for mice) promoter PCR assays. PCR primers were used for the IL-8 promoter (forward: 5′-[…]-3′ and reverse: 5′-[…]-3′) and the MCP-1 promoter (forward: 5′-[…]-3′ and reverse: 5′-[…]-3′).

In assay [3] the test system is HDAC2. The conditions noted are these: CSC-exposed PMs. As to the method: as §1, §2
A further assay concerns elastase. Conditions: alveolar macrophages treated with or without sulforaphane.
In the next assay the test system is MARCO. The protocol: (§3) Human alveolar macrophages were purified from individual BAL samples by centrifugation and seeded onto 6-well tissue culture plates. After incubation for 2 h, non-adherent cells were removed and the adherent cells were incubated with R, S-sulforaphane (5 μM; LKT Laboratories, Inc., St. Paul, Minn.) and or DMSO in RPMI 1640 culture medium with 10% FBS and 1% penicillin-streptomycin (Invitrogen, Carlsbad, Calif.). After 16-20 h, adherent cells were scraped, suspended in RPMI 1640 culture media and plated onto 96-well tissue culture plates for bacterial phagocytosis and clearance assays. […] For MARCO antibody-depletion, alveolar macrophages were incubated with human anti-MARCO antibody (1 μg/ml; (Hycult, Uden, The Netherlands) for 4 hours prior to bacterial challenge.
(§4) GAPDH was used for normalization.

The subject of the next assay is Nrf2. Conditions: COPD alveolar macrophages. As to the method: as §3, §4
The next assay deals with Pseudomonas aeruginosa. Conditions: 0.5 mg/mouse/day nebulizer, three days, 4 hours after PA, compared to vehicle. The protocol:
The efficacy of sulforaphane to improve bacterial phagocytosis and clearance in the lungs of mice exposed to cigarette smoke was determined. After 6 months or 1 week of CS or air exposure, mice were treated with sulforaphane and or vehicle (0.5 mg/mouse/day) for three consecutive days using an Aeroneb® nebulizer (Aerogen, Inc., Galway, Ireland). Mice were challenged intranasally with Pseudomonas aeruginosa 24 hours after the last dose of sulforaphane, and bacterial burden in BALF was analyzed 4 hours later.
C57BL/6J mice were housed under controlled conditions for temperature and humidity, using a 12-hour light/dark cycle. At 8 weeks of age, mice were exposed to CS for (2.5 h/day for 5 days/week) for 1 week or 6 months using a machine that produces cigarette smoke (TE-10, Teague Enterprises) and reference cigarettes (2R4F) with a total suspended particle concentration of 250 mg/m^3 as previously described (T. E. Sussan et al., Proc Natl Acad Sci USA, (Dec. 22, 2008)). Following exposure to CS, mice were inoculated with PA or NTHI at a dose of 10^3 CFU in 50 μl of PBS intranasally. […]
BAL fluid analysis and cell counts with differential staining were carried out as described previously (T. Rangasamy et al., J Clin Invest 114, 1248 (November, 2004)). […] After 24 h, the number of CFU was counted.

`C[S+]([O-])CCCCN=C=S` (stereo not shown) [sulforaphane]: in assay [1], the “expression of other markers (MHC-11, CD14)” value is given as “no significant difference”; the “expression of receptors CD80/86 and CD206” value is “Moderate suppression”. Moreover, the “levels of SNO-HDAC2 in lungs” value in the assay with HDAC2 [2] (CS-exposed mice) is listed as “reduced the levels of SNO-HDAC2”. Also, in the assay with HDAC2 [2] (cigarette smoke-exposed mice), the “GSH levels in lungs” value is on record as “increased GSH levels”, the “HDAC2 enzymatic activity in lungs” value is reported as “significant increase”, the “HDAC2 protein in lungs” value is “significant increase” and the “total HDAC enzymatic activity in lungs” value is recorded as “significant increase”. The “HDAC2 binding in the IL-8 promoter” value with IL-8 promoter (COPD alveolar macrophages) was “significantly increased the levels of HDAC2 binding”. Besides, the “HDAC2 binding in the IL-8 promoter” value in the assay on IL-8 promoter (in the presence of buthionine sulfoximine) was “failed to increase HDAC2 binding”. The “histone acetylation on the IL-8 promoter” value in the assay on IL-8 promoter (sulforaphane treatment with DEX) was “concomitant reduction”. Further, in the assay with IL-8 promoter (sulforaphane, baseline and after LPS), the “histone acetylation in IL-8 promoter” value was “decrease in histone acetylation”. Also, the “levels of SNO-HDAC2” value in the assay with HDAC2 [3] is listed as “significant reduction in the levels of SNO-HDAC2”. In the assay with elastase, the “elastase activity in cell free media” value was “inhibition of elastase activity”. Further, the “surface expression of MARCO protein” value with MARCO (COPD alveolar macrophages, flow cytometry, compared to vehicle, p<0.001) was 2- to 5 fold. In addition, the “expression of MARCO mRNA” value in the assay on MARCO (alveolar macrophages transfected with Nrf2-siRNA, compared to control ssRNA) was “failed to upregulate the expression of MARCO mRNA”. Also, the “Nrf2-regulated target genes (NQO1 & GPX2) mRNA” value in the assay on Nrf2 was “upregulation of Nrf2-regulated targets genes”. Further, in the assay with Nrf2 (flow cytometry, vs vehicle), the Nrf2 protein levels entry was “elevated levels of Nrf2 protein”. The “bacterial burden in lungs” value in the assay with Pseudomonas aeruginosa (1 week CS) is “significantly reduced bacterial burden”. For the same compound, in the assay on Pseudomonas aeruginosa (6 months CS), the “bacterial burden in lungs” value is “significantly reduced bacterial burden”.
